According to patent EP3138849B1, “SALTS OF PHOSPHORUS-CONTAINING AMINOGLYCOSIDE ANTIBIOTICS” (Mathys AG Bettlach, priority 2015, dated 2017):

Columns and labels:
[1] = Release of aminoglycosides from coatings on pure titanium test discs; assay type: physicochemical; conditions: for Freisetzungsrate von Gentamicin-Base (time course) / initiale Freisetzung von Gentamicin-Base: coated titanium disc, 100 µg Gentamicin-Base per cm^2, 1 ml isotonic saline, 37 °C; for Freisetzungsrate von Gentamicin-Base (time course): 21 d, sampling at 1, 2, 3, 4, 7, 14, 21 days; for Freisetzungsrate von Gentamicin-Base (time course) / Wirkstofffreisetzung von beschichteten Titanoberflächen: Fig. 1; for initiale Freisetzung von Gentamicin-Base: Fig. 1, start of release; for Wirkstofffreisetzung von beschichteten Titanoberflächen: compared with Gentamicin-Palmitat
Source text: Zur Untersuchung der Freisetzung von Aminoglykosiden aus Beschichtungen werden runde Probekörper aus Reintitan (Grade 4) mit einem Durchmesser von 11 mm verwendet. Für die Beschichtungen werden folgende Aminoglycosid-Verbindungen verwendet: Gentamicin-Palmitat, Gentamicin-Dodecylphosphat und Gentamicin-Octadecylphosphonsäure.
Umsetzung von Gentamicin mit Palmitat im molaren Verhältnis 1:4. Umsetzung von Gentamicin mit Dodecylphosphat bzw. Octadecylphosphonat im molaren Verhältnis 1:3.
Lösung von Gentamicin-Palmitat, Gentamicin-Dodecylphosphat und Gentamicin-Octadecylphosphonsäure in Ethanol (Konzentration 15-25 mg/ml). Auf die Oberfläche wurden unter sterilen Bedingungen 100 µg Gentamicin-Base pro cm^2 aufgetragen. Trocknen der Beschichtung (4 h bei Raumtemperatur).
Inkubation der beschichteten Probekörper in 1 ml isotonischer Kochsalzlösung über eine Zeitdauer von 21 d bei 37 °C. Zu festgelegten Zeitpunkten (1, 2, 3, 4, 7, 14 und 21 Tagen) werden die Überstände abgenommen und die Probekörper in neuer isotonischer Kochsalzlösung weiter inkubiert.
Der Gehalt an Gentamicin wurde im Hemmhoftest mit Bacillus subtilis (ATCC 6633) bestimmt.
Die gemittelte Menge der freigesetzten Gentamicin-Base aus diesen Gentamicin-Salzen ist in Fig. 1 dargestellt.

MC 3T3-E1-Zellen = assay type: cell-based, Maus
Experimental: Für die Untersuchungen der Cytokompatibilität der aminoglykosidhaltigen Beschichtungen werden runde, sandgestrahlte Probekörper aus Reintitan mit einem Durchmesser von 11 mm mit Gentamicin-Palmitat, Gentamicin-Dodecylphosphat bzw. Gentamicin-Octadecylphosphonsäure mit einem Gehalt von 100 µg Gentamicn-Base pro cm^2, wie in Beispiel 30 beschrieben, beschichtet.
Die Probekörper werden nach dem Trocknen der Beschichtung in Mikrotiterplatten überführt und mit einer definierten Anzahl von MC 3T3-E1-Zellen (Maus-Präosteoblasten-Zelllinie, 25.000 Zellen/ml) besiedelt.
Nach einer Inkubationszeit von 4 Tagen erfolgt die Vitalfärbung mit einer Mischung aus Fluoresceindiacetat (FDA) und GelRed®.
Fig. 2 zeigt die Vitalitätsbestimmung der Zellen mittels Auflicht-Fluoreszenzmikroskopie: Gentamicin-Palmitat (A), Gentamicin-Dodecylphosphat (B), Gentamicin-Octadecylphosphat (C).

| Substance | Freisetzungsrate von Gentamicin-Base (time course) [1] | initiale Freisetzung von Gentamicin-Base [1] | Zellzahlen (MC 3T3-E1-Zellen) | Wirkstofffreisetzung von beschichteten Titanoberflächen [1] | Zytotoxizität (MC 3T3-E1-Zellen) |
| --- | --- | --- | --- | --- | --- |
| Gentamicin-Palmitat [reference compound] | bis zum vierten Freisetzungstag stark abnimmt | initial hohen Freisetzung der Gentamicin-Base (Burst release) | niedrigsten Zellzahlen |  |  |
| Gentamicin-Octadecylphosphonsäure | bleibt von Tag 2 bis Tag 14 konstant | niedrigste initiale Freisetzung von Gentamicin-Base |  | retardierende Wirkstofffreisetzung |  |
| Gentamicin-Dodecylphosphat | bleibt bis Tag 7 konstant und fällt dann nur schwach ab | niedrigere Freisetzungsrate von Gentamicin-Base als das Gentamicin-Palmitat |  | retardierende Wirkstofffreisetzung | signifikant geringere Zytotoxizität |
